Earlier results on 66 compounds are cited in paper PMC12525602, “Identification of Selective α-Glucosidase Inhibitors via Virtual Screening with Machine Learning” (Molecules, 2025).

SMILES strings stand for the structures.

The first data set deals with α-glucosidase. The conditions noted are these: 300-compound dataset of reported inhibitors and ineffective compounds, Table S4; cited from earlier work.
For `C[C@@H]1O[C@@H](Oc2cc(O)c3c(=O)c(O[C@@H]4O[C@@H](C)[C@H](O)[C@@H](O)[C@H]4O)c(-c4ccc(O)cc4)oc3c2)[C@H](O)[C@H](O)[C@H]1O` [compound 0, C[C@H]1[C@H](O)[C@@H](O)[C@@H](O)[C@H](OC2=CC(O)=C3C(OC(C4=CC=C(O)C=C4)=C(O[C@H]5[C@H](O)[C@H](O)[C@@H](O)[C@H](C)O5)C3=O)=C2)O1], the “activity (label in modeling dataset)” value is reported as 0.

For the compound `COc1cc(-c2oc3cc(O)cc(O)c3c(=O)c2O[C@@H]2O[C@H](CO)[C@@H](O)[C@H](O)[C@H]2O)ccc1O` [compound 1, COC1=C(O)C=CC(C2=C(O[C@H]3[C@H](O)[C@@H](O)[C@H](O)[C@@H](CO)O3)C(C4=C(O)C=C(O)C=C4O2)=O)=C1], the “activity (label in modeling dataset)” value is on record as 0.

As for `COc1cc(-c2oc3cc(O)cc(O)c3c(=O)c2O[C@@H]2O[C@H](CO[C@@H]3O[C@@H](C)[C@H](O)[C@@H](O)[C@H]3O)[C@@H](O)[C@H](O)[C@H]2O)ccc1O` [compound 2, C[C@H]1[C@H](O)[C@@H](O)[C@@H](O)[C@H](OC[C@@H]2[C@@H](O)[C@H](O)[C@@H](O)[C@H](OC3=C(C4=CC(OC)=C(O)C=C4)OC5=CC(O)=CC(O)=C5C3=O)O2)O1], the “activity (label in modeling dataset)” value is listed as 0.

For the compound `COc1ccc(S(=O)(=O)NNC(=O)c2cc3cc(F)ccc3[nH]2)cc1OC` [compound 3, FC1=CC=C(NC(C(NNS(=O)(C2=CC(OC)=C(OC)C=C2)=O)=O)=C3)C3=C1], the “activity (label in modeling dataset)” value was 0.

For `Cc1ccc(Nc2nnc(-c3cc4cc(C#N)ccc4[nH]3)s2)cc1` [compound 4, CC(C=C1)=CC=C1NC(S2)=NN=C2C3=CC4=CC(C#N)=CC=C4N3], the “activity (label in modeling dataset)” value is listed as 0.

The same data set, now with this note: activity label of the modeling dataset (Table S5), α-glucosidase; 1 = active, 0 = inactive; cited from earlier work.
In the case of `C[C@@H]1O[C@@H](Oc2cc(O)c3c(=O)c(O[C@@H]4O[C@@H](C)[C@H](O)[C@@H](O)[C@H]4O)c(-c4ccc(O)cc4)oc3c2)[C@H](O)[C@H](O)[C@H]1O` [compound 0, C[C@H]1[C@H](O)[C@@H](O)[C@@H](O)[C@H](OC2=CC(O)=C3C(OC(C4=CC=C(O)C=C4)=C(O[C@H]5[C@H](O)[C@H](O)[C@@H](O)[C@H](C)O5)C3=O)=C2)O1], the activity was 0.

On to `COc1cc(-c2oc3cc(O)cc(O)c3c(=O)c2O[C@@H]2O[C@H](CO)[C@@H](O)[C@H](O)[C@H]2O)ccc1O` [compound 1, COC1=C(O)C=CC(C2=C(O[C@H]3[C@H](O)[C@@H](O)[C@H](O)[C@@H](CO)O3)C(C4=C(O)C=C(O)C=C4O2)=O)=C1], for which the activity is on record as 0.

Take `COc1cc(-c2oc3cc(O)cc(O)c3c(=O)c2O[C@@H]2O[C@H](CO[C@@H]3O[C@@H](C)[C@H](O)[C@@H](O)[C@H]3O)[C@@H](O)[C@H](O)[C@H]2O)ccc1O` [compound 2, C[C@H]1[C@H](O)[C@@H](O)[C@@H](O)[C@H](OC[C@@H]2[C@@H](O)[C@H](O)[C@@H](O)[C@H](OC3=C(C4=CC(OC)=C(O)C=C4)OC5=CC(O)=CC(O)=C5C3=O)O2)O1]: the activity is reported as 0.

For the compound `COc1ccc(S(=O)(=O)NNC(=O)c2cc3cc(F)ccc3[nH]2)cc1OC` [compound 3, FC1=CC=C(NC(C(NNS(=O)(C2=CC(OC)=C(OC)C=C2)=O)=O)=C3)C3=C1], the activity was 0.

In the case of `Cc1ccc(Nc2nnc(-c3cc4cc(C#N)ccc4[nH]3)s2)cc1` [compound 4, CC(C=C1)=CC=C1NC(S2)=NN=C2C3=CC4=CC(C#N)=CC=C4N3], the activity is 0.

Consider `O=C(O)c1ccc(-c2nc3ccc(C(=O)c4ccccc4)cc3[nH]2)cc1` [compound 5], for which the activity is on record as 0.

As to `Cc1ccc(-c2cc(-c3cccnc3)c(C#N)c(N)c2C#N)cc1` [compound 6], the activity is 0.

Turning to `N#Cc1c(-c2cccc(Cl)c2)cc(-c2ccco2)c(C#N)c1N` [compound 7], the activity was 0.

Regarding `O=C(c1ccccc1)c1ccc2nc(-c3ccc(Br)cc3)[nH]c2c1` [compound 8], the activity is recorded as 0.

With `O=C(c1ccccc1)c1ccc2nc(-c3ccc(O)cc3O)[nH]c2c1` [compound 9], the activity was 0.

As for `N#Cc1c(-c2ccc(-c3ccccc3)cc2)cc(-c2ccc([N+](=O)[O-])cc2)c(C#N)c1N` [compound 10], the activity is on record as 0.

For the compound `N#Cc1ccc2[nH]c(-c3nnc(Nc4ccccc4Br)s3)cc2c1` [compound 11], the activity is recorded as 0.

On to `N#Cc1c(-c2ccc(Cl)cc2)cc(-c2cccc(Cl)c2)c(C#N)c1N` [compound 12], for which the activity is given as 0.

Regarding `CC1CCCN(c2ccc(/C=N/Nc3nc(-c4ccc(Cl)cc4)cs3)cc2)C1` (centres unmarked) [compound 13], the activity is 0.

With `Cc1ccccc1Nc1nnc(-c2cc3cc(C#N)ccc3[nH]2)s1` [compound 14], the activity was 0.

On to `CC1CCN(c2ccc(/C=N/Nc3nc(-c4ccc(Br)cc4)cs3)cc2)CC1` [compound 15], for which the activity was 0.

As to `Clc1cccc(Cn2cc(CSc3nnc(COc4cccc5cccnc45)o3)nn2)c1` [compound 16], the activity was 0.

`COc1ccc(-n2cc(CSc3nnc(COc4cccc5cccnc45)o3)nn2)cc1` [compound 17]: the activity was 0.

For `N#Cc1c(-c2ccncc2)cc(-c2ccc([N+](=O)[O-])cc2)c(C#N)c1N` [compound 18], the activity is given as 0.

Regarding `N#Cc1c(-c2cccnc2)cc(-c2ccco2)c(C#N)c1N` [compound 19], the activity is 0.

In the case of `Cc1ccc(-c2cc(-c3cccc([N+](=O)[O-])c3)c(C#N)c(N)c2C#N)cc1` [compound 20], the activity is reported as 0.

With `N#Cc1c(-c2ccc(Cl)cc2)cc(-c2ccccn2)c(C#N)c1N` [compound 21], the activity is reported as 0.

Consider `CC1CCN(c2ccc(/C=N/Nc3nc(-c4ccc(C#N)cc4)cs3)cc2)CC1` [compound 22], for which the activity is given as 0.

As for `N#Cc1ccc2[nH]c(-c3nnc(Nc4ccc(Cl)cc4)s3)cc2c1` [compound 23], the activity is given as 0.

For the compound `N#Cc1c(-c2ccc(Cl)cc2)cc(-c2ccco2)c(C#N)c1N` [compound 24], the activity was 0.

Regarding `N#Cc1c(-c2ccncc2)cc(-c2cccnc2)c(C#N)c1N` [compound 25], the activity is 0.

Regarding `Cc1ccc(-c2cc(-c3ccc([N+](=O)[O-])cc3)c(C#N)c(N)c2C#N)cc1` [compound 26], the activity is reported as 0.

Consider `CCCCCCCCCCCCCCCCCC(N)=O` [compound 27], for which the activity is recorded as 0.

On to `N#Cc1c(-c2ccncc2)cc(-c2ccccn2)c(C#N)c1N` [compound 28], for which the activity is recorded as 0.

Take `Fc1ccc(Cn2cc(CSc3nnc(COc4cccc5cccnc45)o3)nn2)cc1F` [compound 29]: the activity is on record as 0.

On to `O=C(c1ccccc1)c1ccc2nc(-c3ccccc3O)[nH]c2c1` [compound 30], for which the activity is listed as 0.

Take `O=c1c(O[C@@H]2O[C@H](CO)[C@@H](O)[C@H](O)[C@H]2O)c(-c2ccc(O)c(O)c2)oc2cc(O)cc(O)c12` [compound 31]: the activity is 0.

For the compound `N#Cc1c(-c2ccc([N+](=O)[O-])cc2)cc(-c2cccc([N+](=O)[O-])c2)c(C#N)c1N` [compound 32], the activity was 0.

On to `Brc1ccc(Cn2cc(CSc3nnc(COc4cccc5cccnc45)o3)nn2)cc1` [compound 33], for which the activity is recorded as 0.

Regarding `O=c1c(OC2OC(CO)C(O)C(O)C2O)c(-c2cc(O)c(O)c(O)c2)oc2cc(O)cc(O)c12` (centres unmarked) [compound 34], the activity is 0.

As to `Cc1ccc(-c2cc(-c3ccncc3)c(C#N)c(N)c2C#N)cc1` [compound 35], the activity is given as 0.

With `N#Cc1c(-c2ccncc2)cc(-c2cccc(Cl)c2)c(C#N)c1N` [compound 36], the activity is 0.

Take `N#Cc1c(-c2cccnc2)cc(-c2ccsc2)c(C#N)c1N` [compound 37]: the activity is recorded as 0.

Consider `O=c1c(O[C@@H]2O[C@H](CO)[C@H](O)[C@H](O)[C@H]2O)c(-c2ccc(O)c(O)c2)oc2cc(O)cc(O)c12` [compound 38], for which the activity was 0.

As for `N[C@@H](Cc1ccccc1)C(=O)O` [compound 39], the activity is given as 0.

As for `COc1ccc(Nc2nnc(-c3cc4cc(C#N)ccc4[nH]3)s2)cc1` [compound 40], the activity is listed as 0.

As to `O=c1c(O[C@@H]2O[C@H](CO)[C@@H](O)[C@H](O)[C@H]2O)c(-c2ccc(O)cc2)oc2cc(O)cc(O)c12` [compound 41], the activity is recorded as 0.

As to `N#Cc1c(-c2cccnc2)cc(-c2ccccn2)c(C#N)c1N` [compound 42], the activity is given as 0.

For `COc1cccc(Nc2nnc(-c3cc4cc(C#N)ccc4[nH]3)s2)c1` [compound 43], the activity is recorded as 0.

The same data set, now with this note: activity label of the modeling dataset, Table S5 (1 = active, 0 = inactive); cited from earlier work.
With `CCCCCCCCCCCCN` [compound 44], the activity is 0.

Turning to `C[C@@H]1O[C@@H](Oc2c(-c3ccc(O)c(O)c3)oc3cc(O)cc(O)c3c2=O)[C@H](O)[C@H](O)[C@H]1O` [compound 45], the activity is listed as 0.

In the case of `N#Cc1c(-c2ccc(Cl)cc2)cc(-c2cccc(Br)c2)c(C#N)c1N` [compound 46], the activity is reported as 0.

Consider `Fc1cccc(CSc2nnc(COc3cccc4cccnc34)o2)c1` [compound 47], for which the activity was 0.

With `N#Cc1c(-c2ccc([N+](=O)[O-])cc2)cc(-c2cccc(Br)c2)c(C#N)c1N` [compound 48], the activity is 0.

On to `Clc1ccc(-n2cc(CSc3nnc(COc4cccc5cccnc45)o3)nn2)c(Cl)c1` [compound 49], for which the activity is listed as 0.

Turning to `N#Cc1c(-c2cccc(Cl)c2)cc(-c2cccc([N+](=O)[O-])c2)c(C#N)c1N` [compound 50], the activity was 0.

`CCCCCCSc1nnc(COc2cccc3cccnc23)o1` [compound 51]: the activity is listed as 0.

Turning to `Cc1ccc(S(=O)(=O)NNC(=O)c2cc3cc(F)ccc3[nH]2)cc1` [compound 53], the activity was 0.

In the case of `c1ccc(Cn2cc(CSc3nnc(COc4cccc5cccnc45)o3)nn2)cc1` [compound 54], the activity is recorded as 0.

Regarding `CCCCCSc1nnc(COc2cccc3cccnc23)o1` [compound 55], the activity is recorded as 0.

In the case of `O=[N+]([O-])c1ccc(Cn2cc(CSc3nnc(COc4cccc5cccnc45)o3)nn2)cc1` [compound 56], the activity was 0.

On to `BrCCSc1nnc(COc2cccc3cccnc23)o1` [compound 57], for which the activity is reported as 0.

In the case of `Cc1cccc(C)c1-n1cc(CSc2nnc(COc3cccc4cccnc34)o2)nn1` [compound 58], the activity is 0.

Regarding `Cc1ccc(-n2cc(CSc3nnc(COc4cccc5cccnc45)o3)nn2)cc1` [compound 59], the activity is listed as 0.

For the compound `N#Cc1ccc2[nH]c(-c3nnc(Nc4ccc([N+](=O)[O-])cc4)s3)cc2c1` [compound 60], the activity is given as 0.

Take `Clc1ccc(Cn2cc(CSc3nnc(COc4cccc5cccnc45)o3)nn2)c(Cl)c1` [compound 61]: the activity is 0.

Turning to `CCSc1nnc(COc2cccc3cccnc23)o1` [compound 63], the activity is 0.

Turning to `O=c1c(O[C@@H]2O[C@H](CO)[C@H](O)[C@H](O)[C@H]2O)c(-c2ccc(O)cc2)oc2cc(O)cc(O)c12` [compound 65], the activity is reported as 0.

Take `CC(C)CCC(=O)C1(O)C(O)=C(C(=O)CC(C)C)C(=O)C1CCC(C)C` (centres unmarked) [compound 66]: the activity is 0.

`CC1CCN(c2ccc(/C=N/Nc3nc(-c4ccc([N+](=O)[O-])cc4)cs3)cc2)CC1` [compound 67]: the activity is given as 0.

On to `Cc1ccc(-c2csc(N/N=C/c3ccc(N4CCCC(C)C4)cc3)n2)cc1` (centres unmarked) [compound 68], for which the activity is 0.
